Calls of active or inactive are those of the source. No cut-off for these calls is given here.
Tested on: Rattus norvegicus
Assay: In vivo Hypouricemic activity against potassium oxonate-induced hyperuricemia rat model assessed as reduction in serum uric acid production at 8 mg/kg, po measured after 2 hrs
Assay type: functional, organism-based
Conditions: not given

| SMILES | Activity |
| --- | --- |
| Oc1ncnc2[nH]ncc12 | Active |

Target: T1, Xanthine dehydrogenase/oxidase (Bos taurus, UniProt P80457)
Assay: Inhibition of bovine XO assessed as inhibition of uric acid formation using xanthine as substrate at 25 uM preincubated with enzyme for 10 mins followed by substrate addition and measured for 2 mins by spectrophotometry
Conditions: cattle, time 12 min

T1 sequence (P80457 whole entry): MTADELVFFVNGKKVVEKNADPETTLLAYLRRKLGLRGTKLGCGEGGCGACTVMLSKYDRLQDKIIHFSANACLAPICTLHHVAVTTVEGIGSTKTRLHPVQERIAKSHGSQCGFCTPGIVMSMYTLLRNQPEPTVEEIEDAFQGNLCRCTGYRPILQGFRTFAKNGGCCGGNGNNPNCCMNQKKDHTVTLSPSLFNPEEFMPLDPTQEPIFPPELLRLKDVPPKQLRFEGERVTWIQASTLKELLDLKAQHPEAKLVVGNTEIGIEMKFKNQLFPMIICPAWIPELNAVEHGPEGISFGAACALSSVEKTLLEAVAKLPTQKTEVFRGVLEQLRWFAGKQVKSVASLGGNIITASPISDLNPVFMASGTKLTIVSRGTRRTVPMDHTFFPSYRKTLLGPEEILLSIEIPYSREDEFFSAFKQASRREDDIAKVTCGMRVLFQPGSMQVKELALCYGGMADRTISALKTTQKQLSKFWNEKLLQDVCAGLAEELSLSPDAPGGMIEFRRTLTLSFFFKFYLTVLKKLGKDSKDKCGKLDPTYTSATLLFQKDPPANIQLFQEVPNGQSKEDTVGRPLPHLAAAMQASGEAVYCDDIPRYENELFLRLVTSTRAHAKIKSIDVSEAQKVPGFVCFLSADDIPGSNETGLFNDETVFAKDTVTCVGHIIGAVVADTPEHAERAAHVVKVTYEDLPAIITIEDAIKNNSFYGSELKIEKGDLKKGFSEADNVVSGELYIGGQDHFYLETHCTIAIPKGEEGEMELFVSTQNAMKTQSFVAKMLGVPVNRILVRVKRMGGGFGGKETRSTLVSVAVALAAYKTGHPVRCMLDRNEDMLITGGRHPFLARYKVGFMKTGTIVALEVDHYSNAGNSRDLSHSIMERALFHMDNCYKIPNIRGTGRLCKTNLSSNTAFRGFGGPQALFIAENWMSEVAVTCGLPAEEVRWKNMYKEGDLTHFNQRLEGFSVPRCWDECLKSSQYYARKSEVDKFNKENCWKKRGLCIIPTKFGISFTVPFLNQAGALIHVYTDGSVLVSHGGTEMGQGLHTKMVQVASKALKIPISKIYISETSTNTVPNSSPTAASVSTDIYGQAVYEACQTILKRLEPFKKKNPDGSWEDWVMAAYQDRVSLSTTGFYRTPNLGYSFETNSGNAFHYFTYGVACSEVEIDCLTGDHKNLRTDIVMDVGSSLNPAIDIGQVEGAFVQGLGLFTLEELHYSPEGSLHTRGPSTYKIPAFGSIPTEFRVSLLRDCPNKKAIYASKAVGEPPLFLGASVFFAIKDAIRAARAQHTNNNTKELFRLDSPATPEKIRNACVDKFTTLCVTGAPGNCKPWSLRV

| inhibition at 25 µM [%] | SMILES |
| --- | --- |
| < 50 | COc1cccc(Cn2cc(COc3cc(F)ccc3C=O)nn2)c1 |
| < 50 | CC(C)CCn1cc(COc2cc(F)ccc2C=O)nn1 |
| < 50 | COc1ccccc1Cn1cc(COc2ccccc2C#N)nn1 |
| < 50 | COc1cccc(Cn2cc(COc3ccccc3[N+](=O)[O-])nn2)c1 |
| < 50 | COc1ccccc1Cn1cc(COc2ccccc2[N+](=O)[O-])nn1 |
| < 50 | O=Cc1ccccc1OCc1cn(Cc2ccccc2)nn1 |
| < 50 | CCCn1cc(COc2ccccc2C=O)nn1 |
| < 50 | COc1cccc(Cn2cc(COc3ccccc3C#N)nn2)c1 |
| < 50 | CC(C)n1cc(COc2ccccc2C=O)nn1 |
| < 50 | CCn1cc(COc2ccccc2C=O)nn1 |

Target: T1, Xanthine dehydrogenase/oxidase
Assay: Inhibition of bovine XO assessed as inhibition of uric acid formation using xanthine as substrate preincubated with enzyme for 10 mins followed by substrate addition and measured for 2 mins by spectrophotometry
Conditions: not given

| IC50 [nM] | SMILES |
| --- | --- |
| 3590 | CCCCn1cc(COc2cc(F)ccc2C=O)nn1 |
| 9360 | CCC(C)n1cc(COc2ccc(F)cc2C=O)nn1 (configuration not stated) |
| 14300 | CC(C)Cn1cc(COc2ccc(F)cc2C=O)nn1 |
| 1630 | Cc1ccccc1Cn1cc(COc2ccccc2C=O)nn1 |
| 21800 | CCC(C)n1cc(COc2ccccc2C=O)nn1 (configuration not stated) |
| 2070 | COc1ccccc1Cn1cc(COc2cc(F)ccc2C=O)nn1 |
| 2990 | CCCCCn1cc(COc2ccc(F)cc2C=O)nn1 |
| 13500 | CCCCn1cc(COc2ccccc2C=O)nn1 |
| 2120 | CC(C)CCn1cc(COc2ccc(F)cc2C=O)nn1 |
| 2490 | CCCCn1cc(COc2ccc(F)cc2C=O)nn1 |
| 2220 | N#Cc1ccccc1Cn1cc(COc2ccccc2C=O)nn1 |
| 1020 | COc1cccc(Cn2cc(COc3ccccc3C=O)nn2)c1 |
| 1110 | Cc1cccc(Cn2cc(COc3ccccc3C=O)nn2)c1 |
| 21100 | CC(C)Cn1cc(COc2ccccc2C=O)nn1 |
| 700 | COc1cccc(Cn2cc(COc3ccc(F)cc3C=O)nn2)c1 |
| 940 | COc1ccccc1Cn1cc(COc2ccc(F)cc2C=O)nn1 |
| > 25000 | O=Cc1ccccc1OCc1cn(Cc2ccccc2)nn1 |
| 1710 | N#Cc1cccc(Cn2cc(COc3ccccc3C=O)nn2)c1 |
| 4010 | Cc1ccccc1Cn1cc(COc2ccc(F)cc2C=O)nn1 |
| 3460 | CCn1cc(COc2ccc(F)cc2C=O)nn1 |
| 2540 | N#Cc1cccc(Cn2cc(COc3ccc(F)cc3C=O)nn2)c1 |
| 5240 | CCCn1cc(COc2ccc(F)cc2C=O)nn1 |
| 18100 | CCCCCn1cc(COc2ccccc2C=O)nn1 |
| 4150 | N#Cc1ccccc1Cn1cc(COc2ccc(F)cc2C=O)nn1 |
| 2560 | CC(C)n1cc(COc2ccc(F)cc2C=O)nn1 |
| 1450 | COc1ccccc1Cn1cc(COc2ccccc2C=O)nn1 |
| 16000 | CC(C)CCn1cc(COc2ccccc2C=O)nn1 |
| 1180 | Cc1cccc(Cn2cc(COc3ccc(F)cc3C=O)nn2)c1 |

Tested on: Rattus norvegicus
Assay: In vivo Hypouricemic activity against potassium oxonate-induced hyperuricemia rat model assessed as reduction in serum uric acid production at 20 mg/kg, po measured after 2 hrs
Assay type: functional, organism-based
Conditions: not given

| SMILES | Activity |
| --- | --- |
| COc1cccc(Cn2cc(COc3ccc(F)cc3C=O)nn2)c1 | Active |

Target: T1, Xanthine dehydrogenase/oxidase
Assay: Potency index, ratio of allopurinol IC50 to test compound IC50 for bovine XO using xanthine as substrate by spectrophotometry
Conditions: cattle

| SMILES | Ratio IC50 |
| --- | --- |
| COc1cccc(Cn2cc(COc3ccc(F)cc3C=O)nn2)c1 | 14 |

Tested on: Rattus norvegicus
Assay: In vivo Hypouricemic activity against potassium oxonate-induced hyperuricemia rat model assessed as reduction in AUC of serum uric acid level at 20 mg/kg, po measured after 0.5 to 8 hrs
Assay type: functional, organism-based
Conditions: time 0.5-8 hrs

| SMILES | Activity |
| --- | --- |
| COc1cccc(Cn2cc(COc3ccc(F)cc3C=O)nn2)c1 | Active |
